Measured values taken from patent publication US10676479B2, “Imidazolepyridine compounds and uses thereof” (Novartis AG, priority 2016, dated 2020).
pIC50: −log10 of the molar value. Like-named read-outs stand apart in the source and are kept apart here.

Assays:
[1] = tested on: H3K27 methylation in G401 cell; assay: ELISA (H3K27 methylation) assay; assay type: cell-based; conditions: Homo sapiens, G-401, ELISA Qualified assay, 48 h, read-out: (c) IC50
Experimental: ELISA (H3K27 Methylation) Assay
Representative compounds of the present invention were serially and separately diluted 3-fold in DMSO to obtain a total of eight or twelve concentrations. Then the compounds were added to G401 cell cultured in 384-well plate at 1:500 dilution to obtain the highest concentration of 20 μM. The cells were further cultured for 48 h before ELISA procedure.
ELISA protocol: Cell lysates were transferred to the wells of a 384-well plate and the final volume was adjusted to 50 μL per well with PBS. The plate was sealed, centrifuged at 2,000 rpm for 2 min and incubated at 4° C. for about 16 h. The plate was washed with TBST buffer (1×TBS (10×TBS: 24.2 g Tris (Sigma, T6066), 80 g NaCl (Sigma, S3014) to 1 L of water and adjust pH to 7.6 with HCl) with 0.1% Tween-20). Blocking buffer (TBST, 5% BSA; 50 μL per well) was added and the plate was incubated for 1 h at rt. The blocking buffer was removed and primary antibody was added (30 μL per well). […] The primary antibody was incubated in the plate at rt for 1 h. The wells were washed with TBST and incubated with secondary antibody for 1 h at rt. […] After 1 h of incubation at rt, the wells were washed with TBST. […] The signal was read using a PerkinElmer Envision Reader. The H3K27 methylation readouts were normalized using H3 signal and then percentage inhibition was calculated against the samples treated with DMSO. The data were then fit to a dose response curve using the program Helios to get the IC50 values of the test compound.

[2] = molecular target: wild type PRC2 (wtPRC2) complex (Homo sapiens (Human), UniProt O75530); assay: EED LC-MS assay; assay type: biochemical
Sequence of wild type PRC2 (wtPRC2) complex (O75530 whole entry): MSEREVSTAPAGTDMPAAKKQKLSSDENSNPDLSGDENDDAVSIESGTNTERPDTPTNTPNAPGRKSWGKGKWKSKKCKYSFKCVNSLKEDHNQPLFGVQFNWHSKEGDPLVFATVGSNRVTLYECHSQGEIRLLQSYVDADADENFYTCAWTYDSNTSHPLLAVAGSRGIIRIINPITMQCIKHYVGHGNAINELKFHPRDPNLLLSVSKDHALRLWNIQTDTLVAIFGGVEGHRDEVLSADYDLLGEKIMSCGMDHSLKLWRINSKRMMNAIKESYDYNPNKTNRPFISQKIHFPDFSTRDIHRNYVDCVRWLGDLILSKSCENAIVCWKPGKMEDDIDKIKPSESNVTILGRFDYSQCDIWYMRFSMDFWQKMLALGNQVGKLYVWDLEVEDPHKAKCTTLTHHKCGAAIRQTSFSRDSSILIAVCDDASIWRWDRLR
Sequence of wild type PRC2 (wtPRC2) complex (Q15910 whole entry partner): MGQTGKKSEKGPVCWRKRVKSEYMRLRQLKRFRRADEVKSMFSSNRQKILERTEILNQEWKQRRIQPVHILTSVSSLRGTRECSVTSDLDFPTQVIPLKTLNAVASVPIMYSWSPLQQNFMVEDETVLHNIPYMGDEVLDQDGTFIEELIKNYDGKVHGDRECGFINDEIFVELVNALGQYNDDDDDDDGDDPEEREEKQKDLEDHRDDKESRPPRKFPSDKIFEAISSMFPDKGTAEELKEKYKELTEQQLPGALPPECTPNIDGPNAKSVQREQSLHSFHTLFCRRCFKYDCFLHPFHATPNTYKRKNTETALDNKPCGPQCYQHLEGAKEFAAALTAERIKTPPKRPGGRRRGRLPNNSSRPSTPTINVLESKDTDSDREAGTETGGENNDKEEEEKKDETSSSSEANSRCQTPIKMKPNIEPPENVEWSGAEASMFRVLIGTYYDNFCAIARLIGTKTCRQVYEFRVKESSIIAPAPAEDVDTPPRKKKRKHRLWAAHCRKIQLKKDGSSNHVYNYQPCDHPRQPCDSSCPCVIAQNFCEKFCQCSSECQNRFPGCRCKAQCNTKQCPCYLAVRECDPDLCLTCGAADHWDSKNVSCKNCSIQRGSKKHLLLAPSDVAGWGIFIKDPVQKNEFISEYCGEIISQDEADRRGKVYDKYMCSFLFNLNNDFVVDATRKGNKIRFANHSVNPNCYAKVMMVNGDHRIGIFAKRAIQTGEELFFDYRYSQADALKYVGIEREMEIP
Sequence of wild type PRC2 (wtPRC2) complex (Q15022 whole entry partner): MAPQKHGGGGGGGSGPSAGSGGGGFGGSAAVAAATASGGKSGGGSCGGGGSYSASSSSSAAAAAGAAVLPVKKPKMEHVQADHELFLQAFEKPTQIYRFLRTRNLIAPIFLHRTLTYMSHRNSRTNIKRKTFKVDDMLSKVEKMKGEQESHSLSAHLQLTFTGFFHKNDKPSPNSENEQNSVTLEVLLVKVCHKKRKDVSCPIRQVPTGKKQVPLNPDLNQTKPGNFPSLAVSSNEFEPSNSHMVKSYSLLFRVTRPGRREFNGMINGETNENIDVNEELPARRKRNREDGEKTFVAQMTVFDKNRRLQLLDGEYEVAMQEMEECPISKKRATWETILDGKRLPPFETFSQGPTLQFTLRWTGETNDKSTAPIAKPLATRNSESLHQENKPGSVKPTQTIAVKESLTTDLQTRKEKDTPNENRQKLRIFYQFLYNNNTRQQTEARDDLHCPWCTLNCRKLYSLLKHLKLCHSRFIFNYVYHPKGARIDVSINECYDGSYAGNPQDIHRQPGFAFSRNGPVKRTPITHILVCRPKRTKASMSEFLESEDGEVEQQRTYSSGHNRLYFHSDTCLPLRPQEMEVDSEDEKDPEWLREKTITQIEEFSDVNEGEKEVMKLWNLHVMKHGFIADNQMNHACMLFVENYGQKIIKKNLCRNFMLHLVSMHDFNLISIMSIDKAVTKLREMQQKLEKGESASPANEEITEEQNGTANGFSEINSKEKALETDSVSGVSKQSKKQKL
Experimental: EED LC-MS Assay Representative compounds of the present invention were serially and separately diluted 3-fold in DMSO to obtain a total of eight or twelve concentrations. […] A 6 μL solution of 3 μM of the peptide substrate H3K27Me0 (histone H3[21-44]-biotin) in reaction buffer was added to initiate each reaction. […] The data were then fit to a dose response equation using the program Helios to get the IC50 values of the test compound.

[3] = molecular target: EED (1-441)-His protein (Homo sapiens (Human), UniProt O75530); assay: EED-H3K27Me3 peptide competition binding assay by AlphaScreen; conditions: EED Alphascreen binding Qualified assay
Sequence of EED (1-441)-His protein (O75530 whole entry): as the sequence (O75530 whole entry) above
Experimental: Then 4 μL of detection beads mix was added to the plate and incubate in the dark at the rt for 1 h. The final concentration of donor and acceptor beads was 10 μg/mL for each. […] The data were then fit to a dose response equation using the program Helios (Novartis) to get the IC50 values. […] Sebaugh, J. […] Each compound was counter screened to determine if it interfered with the AlphaScreen beads. […] The plates were then incubated for 1 h at rt in dark before being read on EnVison.

[4] = EED LC-MS Qualified assay, read-out: (b) IC50

| SMILES | pIC50 [1] | pIC50 [2, 4] | pIC50 [3] | pIC50 [2] |
| --- | --- | --- | --- | --- |
| Cc1nc(C(F)(F)CO)ccc1-c1cnc(NCc2c(F)ccc3c2CCO3)n2cncc12 [Example 56, 2,2-difluoro-2-(5-(5-(((5-fluoro-2,3-dihydrobenzofuran-4-yl)methyl)amino)imidazo[1,5-c]pyrimidin-8-yl)-6-methylpyridin-2-yl)ethan-1-ol] | 7.68 | 7.74 | 8.32 | – |
| CN(C)Cc1ccc(-c2cnc(NCc3c(F)ccc4c3CCO4)n3cncc23)cc1 [Example 17, 8-(4-((dimethylamino)methyl)phenyl)-N-((5-fluoro-2,3-dihydrobenzofuran-4-yl)methyl)imidazo[1,5-c]pyrimidin-5-amine] | 7.49 | 7.59 | 7.90 | – |
| CCOC(=O)c1ncn2c(NCc3cc(OC)c(F)cc3F)ncc(-c3ccc(S(=O)(=O)N(C)C)cc3)c12 [Example 97, ethyl 5-((2,4-difluoro-5-methoxybenzyl)amino)-8-(4-(N,N-dimethylsulfamoyl)phenyl)imidazo[1,5-c]pyrimidine-1-carboxylate] | 6.70 | 7.78 | 7.71 | – |
| Cc1cc(-c2cnc(NCc3c(F)ccc4c3CCO4)n3cncc23)ccc1S(C)(=O)=O [Example 48, N-((5-fluoro-2,3-dihydrobenzofuran-4-yl)methyl)-8-(3-methyl-4-(methylsulfonyl)phenyl)imidazo[1,5-c]pyrimidin-5-amine] | 7.47 | 7.79 | 7.98 | – |
| CS(=O)(=O)c1ccc(-c2cnc(NCc3c(F)ccc4c3CCO4)n3cncc23)cn1 [Example 22, N-((5-fluoro-2,3-dihydrobenzofuran-4-yl)methyl)-8-(6-(methylsulfonyl)pyridin-3-yl)imidazo[1,5-c]pyrimidin-5-amine] | 7.25 | 8.01 | 8.26 | – |
| c1cc(CNc2ncc(-c3ccncc3)c3cncn23)c2ccoc2c1 [Example 65, N-(benzofuran-4-ylmethyl)-8-(pyridin-4-yl)imidazo[1,5-c]pyrimidin-5-amine] | 6.19 | 7.03 | 6.54 | – |
| OCCc1ccc(-c2cnc(NCc3c(F)ccc4c3CCO4)n3cncc23)cn1 [Example 34, 2-(5-(5-(((5-fluoro-2,3-dihydrobenzofuran-4-yl)methyl)amino)imidazo[1,5-c]pyrimidin-8-yl)pyridin-2-yl)ethan-1-ol] | 7.23 | 7.40 | 7.66 | – |
| N#Cc1ncn2c(NCc3c(F)ccc4c3CCO4)ncc(-n3ccnc3)c12 [Example 119, 5-(((5-fluoro-2,3-dihydrobenzofuran-4-yl)methyl)amino)-8-(1H-imidazol-1-yl)imidazo[1,5-c]pyrimidine-1-carbonitrile] | 7.73 | 7.35 | 7.74 | – |
| Fc1ccc2c(c1CNc1ncc(-c3ccc(C(F)F)nc3)c3cncn13)CCO2 [Example 60, 8-(6-(difluoromethyl)pyridin-3-yl)-N-((5-fluoro-2,3-dihydrobenzofuran-4-yl)methyl)imidazo[1,5-c]pyrimidin-5-amine] | 7.28 | 7.95 | 7.82 | – |
| Cc1ncc(-c2cnc(NCc3c(F)ccc4c3CCO4)n3cncc23)cn1 [Example 50, N-((5-fluoro-2,3-dihydrobenzofuran-4-yl)methyl)-8-(2-methylpyrimidin-5-yl)imidazo[1,5-c]pyrimidin-5-amine] | 7.13 | 7.79 | 8.15 | – |
| Fc1ccc2c(c1CNc1ncc(-c3ccc(CN4CCCC4)cc3)c3cncn13)CCO2 [Example 39, N-((5-fluoro-2,3-dihydrobenzofuran-4-yl)methyl)-8-(4-(pyrrolidin-1-ylmethyl)phenyl)imidazo[1,5-c]pyrimidin-5-amine] | 7.51 | 8.00 | 7.98 | – |
| Cc1ncc(-c2cnc(NCc3c(F)ccc4c3CCO4)n3cncc23)c(C)n1 [Example 1, 8-(2,4-Dimethylpyrimidin-5-yl)-N-((5-fluoro-2,3-dihydrobenzofuran-4-yl)methyl)imidazo[1,5-c]pyrimidin-5-amine] | 7.61 | 7.88 | 8.14 | – |
| Cc1ncccc1-c1cnc(NCc2c(F)ccc3c2CCO3)n2cnc(C#C[Si](C)(C)C)c12 [Example 116, N-((5-fluoro-2,3-dihydrobenzofuran-4-yl)methyl)-8-(2-methylpyridin-3-yl)-1-((trimethylsilyl)ethynyl)imidazo[1,5-c]pyrimidin-5-amine] | 7.05 | – | 8.08 | 8.06 |
| CS(=O)(=O)Nc1ccc(-c2cnc(NCc3c(F)ccc4c3CCO4)n3cncc23)cc1 [Example 29, N-(4-(5-(((5-fluoro-2,3-dihydrobenzofuran-4-yl)methyl)amino)imidazo[1,5-c]pyrimidin-8-yl)phenyl)methanesulfonamide] | 7.13 | 7.48 | 7.43 | – |
| Fc1ccc2c(c1CNc1ncc(-c3cccnc3)c3cncn13)CCO2 [Example 28, N-((5-fluoro-2,3-dihydrobenzofuran-4-yl)methyl)-8-(pyridin-3-yl)imidazo[1,5-c]pyrimidin-5-amine] | 7.30 | 7.66 | 7.70 | – |

Stronger by pIC50 [1], values ahead:

| pIC50 [1] | pIC50 [2, 4] | pIC50 [3] | SMILES | pIC50 [2] |
| --- | --- | --- | --- | --- |
| 7.87 | 7.53 | 7.77 | CC(=O)N1CCN(c2ccc(-c3cnc(NCc4c(F)ccc5c4CCO5)n4cnc(C#N)c34)cn2)CC1 [Example 87, 8-(6-(4-acetylpiperazin-1-yl)pyridin-3-yl)-5-(((5-fluoro-2,3-dihydrobenzofuran-4-yl)methyl)amino)imidazo[1,5-c]pyrimidine-1-carbonitrile] | – |
| 8.29 | 8.24 | 8.31 | CCOC(=O)c1ncn2c(NCc3c(F)ccc4c3CCO4)ncc(-c3ccc(C)nc3C)c12 [Example 93, ethyl 8-(2,6-dimethylpyridin-3-yl)-5-(((5-fluoro-2,3-dihydrobenzofuran-4-yl)methyl)amino)imidazo[1,5-c]pyrimidine-1-carboxylate] | – |
| 8.16 | 7.77 | 7.90 | Cc1ncc(-c2cnc(NCc3c(F)ccc4c3CCO4)n3cnc(-c4ncco4)c23)c(C)n1 [Example 11, 8-(2,4-dimethylpyrimidin-5-yl)-N-((5-fluoro-2,3-dihydrobenzofuran-4-yl)methyl)-1-(oxazol-2-yl)imidazo[1,5-c]pyrimidin-5-amine] | – |
| 8.27 | 7.82 | 8.25 | CC(c1ccc(-c2cnc(NCc3c(F)ccc4c3CCO4)n3cnc(C#N)c23)cc1)N1CCCC1 (stereo not drawn) [Example 76, 5-(((5-fluoro-2,3-dihydrobenzofuran-4-yl)methyl)amino)-8-(4-(1-(pyrrolidin-1-yl)ethyl)phenyl)imidazo[1,5-c]pyrimidine-1-carbonitrile] | – |
| 8.44 | 8.24 | 8.37 | CCOC(=O)c1ncn2c(NCc3c(F)ccc4c3CCO4)ncc(-c3cnc(C)nc3C)c12 [Example 94, ethyl 8-(2,4-dimethylpyrimidin-5-yl)-5-(((5-fluoro-2,3-dihydrobenzofuran-4-yl)methyl)amino)imidazo[1,5-c]pyrimidine-1-carboxylate] | – |
| 8.51 | 7.90 | 8.38 | Cc1cn(-c2cnc(NCc3c(F)ccc4c3CCO4)n3cnc(C#N)c23)cn1 [Example 6, 5-(((5-Fluoro-2,3-dihydrobenzofuran-4-yl)methyl)amino)-8-(4-methyl-1H-imidazol-1-yl)imidazo[1,5-c]pyrimidine-1-carbonitrile] | – |
| 8.62 | 7.77 | 8.16 | CS(=O)(=O)c1ncn2c(NCc3c(F)ccc4c3CCO4)ncc(-c3cccnc3)c12 [Example 102, N-((5-fluoro-2,3-dihydrobenzofuran-4-yl)methyl)-1-(methylsulfonyl)-8-(pyridin-3-yl)imidazo[1,5-c]pyrimidin-5-amine] | – |
| 8.49 | 8.05 | 8.46 | Cc1cc(-c2cnc(NCc3c(F)ccc4c3CCO4)n3cnc(C#N)c23)n(C)n1 [Example 5, 8-(1,3-Dimethyl-1H-pyrazol-5-yl)-5-(((5-fluoro-2,3-dihydrobenzofuran-4-yl)methyl)amino)imidazo[1,5-c]pyrimidine-1-carbonitrile] | – |
